# Measured values as given in US20190038628A1, “USE OF INHIBITORS OF THE ACTIVITY OR FUNCTION OF PI3K FOR THE TREATMENT OF PRIMARY SJOGREN'S SYNDROME” (Novartis AG, priority 2016, published 2019).
# pIC50: −log10 of the molar value. Several values for one entry are separate records, joined by “and”; a condition that tells them apart may be missing. Equal values may be shown once.
# How the values were obtained:
# [1] = test system: Human Peripheral Blood Mononuclear Cells (PBMC); experiment: TLR9 ligand-induced CXCL13 production of human PBMC; format: cell-based; conditions: ODN stimulus; for CXCL13 in culture supernatant: individual donors 1-6; for CXCL13 in culture supernatant, mean: mean of 6 donors
# Text: For evaluating the effect of compound A on the production of chemokines relevant for the formation of germinal centers, PBMC were isolated from Buffy Coat (collected through Inter-Regionale Blutspende of the Swiss Red Cross) by standard Ficoll gradient centrifugation using Ficoll-Paque plus (GE healthcare #17-1440-03) in Leucosep tubes (Greiner Bio-one #227289). Cells were washed two times with PBS and then resuspended at 2.2×10^6/mL in RPMI 1640 medium supplemented with 10% FBS, Gentamycine (50 ug/ml), Insulin-Transferrin-Selenium and P-Mercaptoethanol (50 uM).
# PBMC were dispensed to 48-well plates (Costar #3548) and incubated with pre-diluted compound A resulting in a dilution with a final concentration of 0.3, 1 or 3 uM. Control samples were pretreated with DMSO to obtain a final concentration of 0.03% DMSO. Samples were mixed thoroughly and incubated in a humified incubator at 37° C. for 1 h. Cells were thereafter stimulated by the addition of the TLR9 agonist ODN M362 (Invivogen, #tlrl-m362) at a final concentration of 30 ug/ml or anti-IgM-Dextran (Finabiosolution #0004) at a final concentration of 2 ug/ml. Control samples were left unstimulated. Samples were mixed thoroughly and incubated in a humified incubator at 37° C. for 24 h.
# After the stimulation, culture supernatants were harvested and chemokines quantified by Bio-Plex Multiplex immunoassay (CXCL13; Bio Rad #171 BK12MR2) or MSD V-Plex assay (IP-10; Meso Scale Diagnostics) or according to the manufacturer's instructions.
# B cells from Buffy Coat = experiment: CXCL13-induced B cell migration (transwell); format: cell-based, human; conditions: for cell count (migrated B cells): mean of 4 wells
# Protocol: PBMC were isolated from Buffy Coat as described above. Cells were washed two times with PBS and then resuspended at 5×10^7/mL in PBS containing 2% FBS and 1 mM EDTA. Further B cell purification was performed via depletion of non-B cells with an EasySep™ Human B Cell Enrichment Kit (STEMCELL Technologies #19054) according to the manufacture's instruction. In brief, 4×10^8 PBMCs in 8 ml isolation buffer were incubated with 400 ul of enrichment cocktail in a 14 mL round-bottom tube for 10 minutes at room temperature. PBMC were further incubated with 600 ul of magnetic particles for 5 minutes at room. For B cell isolation, the tube was placed into the magnet for 5 min and enriched B cells were collected in a fresh 14 ml tube. Cells were then washed and resuspended at 5×10^6/mL in RPMI 1640 medium supplemented with 10% FBS, Gentamycine (50 ug/ml), Insulin-Transferrin-Selenium and P-Mercaptoethanol (50 uM).
# Isolated B cells were dispensed to 5 ml round-bottom tube (Costar #352054) and incubated with pre-diluted compound A resulting in a dilution with a final concentration of 10, 1, 0.1 or 0.01 uM. Control samples were pretreated with DMSO to obtain a final concentration of 0.1% DMSO. Samples were mixed thoroughly and incubated in a water bath at 37° C. for 30 minutes. Some 235 ul of CXCL13 (R&D Systems #801-CX) in a dilution with a final concentration of 100 nM was added to the wells of the 96-well transwell receiver plate (Costar #3387). Control wells were filled with 235 ul medium. The 5 um permeable support insert was added to the receiver plate and filled with 80 ul of pre-incubated B cells. Transwell plate was incubated in a humified incubator at 37° C. for 3 h. Permeable support insert was removed and cell number in receiver plate was assessed by flow cytometry.
# [2] = test system: Splenic B cell from Balb/c nu/nu mice; experiment: LPS-induced antibody production from mouse B cells in vitro; format: cell-based; conditions: Mouse spleen, stimulus LPS/IL-4, readout IgM, mean of at least two experiments
# Protocol: The LPS-induced B cell functions were investigated according to a protocol adapted from Moon (Moon et al 1989) with minor modifications: Splenic B cell from Balb/c nu/nu mice were cultured with mIL-4, mIL-5 and LPS in the presence of titrated amounts of compound. The final concentrations were 0.5×10^5 splenocytes/well, 500 U/ml mIL-4, 500 U/ml mIL-5, and 50 μg/ml LPS. Supernatants were analyzed for antibody production by ELISA after 6 days of incubation.
smiles,measurement,setting,value
"CCC(=O)N1CC[C@H](Nc2ncnc3c2CN(c2cnc(OC)c(C(F)(F)F)c2)CC3)C1 [Compound A, 1-{(S)-3-[6-(6-Methoxy-5-trifluoromethyl-pyridin-3-yl)-5,6,7,8-tetrahydro-pyrido[4,3-d]pyrimidin-4-ylamino]-pyrrolidin-1-yl}-propan-1-one]",inhibition at 0.3 µM,"[1]; Homo sapiens, PBMC, Compound A 300 nM",40%
same,inhibition at 1 µM,"[1]; Homo sapiens, PBMC, Compound A 1000 nM",51%
same,inhibition at 3 µM,"[1]; Homo sapiens, PBMC, Compound A 3000 nM",55%
same,CXCL13 in culture supernatant,[1]; Compound A 300 nM,8 pg/ml (2×) and 3 pg/ml and 39 pg/ml and 113 pg/ml and 51 pg/ml
same,"CXCL13 in culture supernatant, mean",[1]; Compound A 300 nM,37 pg/mL
same,CXCL13 in culture supernatant,[1]; Compound A 1000 nM,7 pg/ml and 3 pg/ml and 42 pg/ml (2×) and 84 pg/ml and 6 pg/ml
same,"CXCL13 in culture supernatant, mean",[1]; Compound A 1000 nM,31 pg/mL
same,CXCL13 in culture supernatant,[1]; Compound A 3000 nM,5 pg/mL and 3 pg/mL and 29 pg/mL and 86 pg/mL and 41 pg/mL and 4 pg/mL
same,"CXCL13 in culture supernatant, mean",[1]; Compound A 3000 nM,28 pg/mL
same,inhibition at 0.01 µM,"B cells from Buffy Coat; Homo sapiens, B-cell, compound A 10 nM",13%
same,inhibition at 0.1 µM,"B cells from Buffy Coat; Homo sapiens, B-cell, compound A 100 nM",39%
same,inhibition at 1 µM,"B cells from Buffy Coat; Homo sapiens, B-cell, compound A 1000 nM",52%
same,inhibition at 10 µM,"B cells from Buffy Coat; Homo sapiens, B-cell, compound A 10000 nM",79%
same,cell count (migrated B cells),B cells from Buffy Coat; compound A 10 nM,6165
same,cell count (migrated B cells),B cells from Buffy Coat; compound A 100 nM,4556
same,cell count (migrated B cells),B cells from Buffy Coat; compound A 1000 nM,3743
same,cell count (migrated B cells),B cells from Buffy Coat; compound A 10000 nM,2043
same,pIC50,[2],6.63
